Measured values taken from ChEMBL document CHEMBL1697781, “Assessment of the health effects of chemicals in humans: II. Construction of an adverse effects database for QSAR modeling” (Curr Drug Discov Technol, 2004).

Legend:
Details in all cases: human; call rule not given here
Hepatotoxicity [1] = assay: FDA HLAED, liver enzyme composite activity
Hepatotoxicity [2] = assay: FDA HLAED, alkaline phosphatase increase
Hepatotoxicity [3] = assay: FDA HLAED, serum glutamic oxaloacetic transaminase (SGOT) increase
Hepatotoxicity [4] = assay: FDA HLAED, serum glutamic pyruvic transaminase (SGPT) increase
Hepatotoxicity [5] = assay: FDA HLAED, lactate dehydrogenase (LDH) increase
Hepatotoxicity [6] = assay: FDA HLAED, gamma-glutamyl transferase (GGT) increase
For GGT Increase - Index Value in this document: reference of the scale not given here.
For LDH Increase - Index Value in this document: reference of the scale not given here.

Row | Compound | Composite Activity - Active (Hepatotoxicity [1]) | Composite Activity - Marginal (Hepatotoxicity [1]) | Composite Activity - Score (Hepatotoxicity [1]) | Alkaline Phosphatase Increase - Activity Score (Hepatotoxicity [2]) | Alkaline Phosphatase Increase - Index Value (Hepatotoxicity [2]) | Alkaline Phosphatase Increase - Number of Reports (Hepatotoxicity [2]) | SGOT Increase - Activity Score (Hepatotoxicity [3]) | SGOT Increase - Index Value (Hepatotoxicity [3]) | SGOT Increase - Number of Reports (Hepatotoxicity [3]) | SGPT Increase - Activity Score (Hepatotoxicity [4]) | SGPT Increase - Index Value (Hepatotoxicity [4]) | SGPT Increase - Number of Reports (Hepatotoxicity [4]) | LDH Increase - Activity Score (Hepatotoxicity [5]) | LDH Increase - Index Value (Hepatotoxicity [5]) | LDH Increase - Number of Reports (Hepatotoxicity [5]) | GGT Increase - Activity Score (Hepatotoxicity [6]) | GGT Increase - Index Value (Hepatotoxicity [6]) | GGT Increase - Number of Reports (Hepatotoxicity [6]) | further results
1 | COc1cccc2c1C(=O)c1c(O)c3c(c(O)c1C2=O)C[C@@](O)(C(C)=O)C[C@@H]3O[C@H]1C[C@H](N)[C@H](O)[C@H](C)O1 [DAUNORUBICIN] | 0 | 0 | Inactive | Inactive | 0 | < 4 | Inactive | 0 | < 4 | Inactive | 0 | < 4 | Inactive | 0 | < 4 | Inactive | 0 | < 4 | 
2 | CCN[C@@H](C)Cc1cccc(C(F)(F)F)c1 [DEXFENFLURAMINE] | 0 | 0 | Inactive | Inactive | 0.2 | < 4 | Inactive | 1 | >= 4 | Inactive | 0.6 | < 4 | Inactive | 0.4 | < 4 | Inactive | 0.6 | < 4 | 
3 | C[C@@H](CN1CC(=O)NC(=O)C1)N1CC(=O)NC(=O)C1 [DEXRAZOXANE] | 0 | 0 | Inactive | Inactive | 0 | < 4 | Inactive | 0 | < 4 | Inactive | 0 | < 4 | Inactive | 0 | < 4 | Inactive | 0 | < 4 | 
4 | C[C@@]12CCCCC[C@@H](Cc3ccc(O)cc31)[C@@H]2N [DEZOCINE] | 0 | 0 | Inactive | Inactive | 0 | < 4 | Inactive | 0 | < 4 | Inactive | 0 | < 4 | Inactive | 0 | < 4 | Inactive | 0 | < 4 | 
5 | O=C(O)Cc1ccccc1Nc1c(Cl)cccc1Cl [DICLOFENAC] |  |  |  | Active | 9.2 | >= 4 | Active | 11.4 | >= 4 | Active | 11.1 | >= 4 | Inactive | 2 | >= 4 | Marginally Active | 3.8 | >= 4 | Composite Activity - Active (Hepatotoxicity [1]; Liver): 3; Composite Activity - Marginal (Hepatotoxicity [1]; Liver): 1; Composite Activity - Score (Hepatotoxicity [1]; Liver): Active
6 | O=c1[nH]cnc2c1ncn2[C@H]1CC[C@@H](CO)O1 [DIDANOSINE] | 3 | 1 | Active | Active | 14.5 | >= 4 | Active | 13.7 | >= 4 | Active | 12.9 | >= 4 | Marginally Active | 3 | >= 4 | Inactive | 1.5 | < 4 | 
7 | O=C(O)c1cc(-c2ccc(F)cc2F)ccc1O [DIFLUNISAL] |  |  |  | Inactive | 0 | < 4 | Inactive | 0.3 | < 4 | Inactive | 0.5 | < 4 | Inactive | 0 | < 4 | Inactive | 0 | < 4 | Composite Activity - Active (Hepatotoxicity [1]; Liver): 0; Composite Activity - Marginal (Hepatotoxicity [1]; Liver): 0; Composite Activity - Score (Hepatotoxicity [1]; Liver): Inactive
8 | COc1ccc([C@@H]2Sc3ccccc3N(CCN(C)C)C(=O)[C@@H]2OC(C)=O)cc1 [DILTIAZEM] | 0 | 0 | Inactive | Inactive | 0.1 | < 4 | Inactive | 0.3 | >= 4 | Inactive | 0.1 | < 4 | Inactive | 0.1 | < 4 | Inactive | 0 | < 4 | 
9 | CNCC(O)c1ccc(OC(=O)C(C)(C)C)c(OC(=O)C(C)(C)C)c1 (stereo unspecified) [DIPIVEFRIN] | 0 | 0 | Inactive | Inactive | 0 | < 4 | Inactive | 0 | < 4 | Inactive | 0 | < 4 | Inactive | 0 | < 4 | Inactive | 0 | < 4 | 
10 | CC[C@H]1OC(=O)[C@H](C)[C@@H](O[C@H]2C[C@@](C)(OC)[C@@H](O)[C@H](C)O2)[C@H](C)[C@@H](O[C@@H]2O[C@H](C)C[C@H](N(C)C)[C@H]2O)[C@](C)(O)C[C@@H](C)[C@@H]2N[C@@H](COCCOC)O[C@H]([C@H]2C)[C@]1(C)O [DIRITHROMYCIN] | 0 | 0 | Inactive | Inactive | 0 | < 4 | Inactive | 5.4 | < 4 | Inactive | 5.4 | < 4 | Inactive | 0 | < 4 | Inactive | 2.7 | < 4 | 
11 | CC(CCc1ccc(O)cc1)NCCc1ccc(O)c(O)c1 (stereo unspecified) [DOBUTAMINE] | 0 | 0 | Inactive | Inactive | 0 | < 4 | Inactive | 0 | < 4 | Inactive | 0 | < 4 | Inactive | 0 | < 4 | Inactive | 0 | < 4 | 
12 | CC(=O)O[C@@]12CO[C@@H]1C[C@H](O)[C@@]1(C)C(=O)[C@H](O)C3=C(C)[C@@H](OC(=O)[C@H](O)[C@@H](NC(=O)OC(C)(C)C)c4ccccc4)C[C@@](O)([C@@H](OC(=O)c4ccccc4)[C@H]21)C3(C)C.O.O.O [DOCETAXEL] | 0 | 0 | Inactive | Inactive |  | < 4 | Inactive |  | < 4 | Inactive |  | < 4 | Inactive |  | < 4 | Inactive |  | < 4 | 
